# According to patent publication EP0663826B1, “AMINO ACIDS CONTAINING PARENTERAL FORMULATIONS FOR THE TREATMENT OF HYPOTENSION AND RELATED PATHOLOGIES” (BOARD OF REGENTS THE UNIVERSITY OF TEXAS SYSTEM, priority 1991, dated 1993):
# What was measured:
# [1] = system: endotoxin-induced shock in dogs; experiment: Endotoxin-induced hypotension in dogs (with nitroglycerin and control dogs); format: in vivo
# Experimental: Animals: Studies were carried out on 12 conditioned mongrel dogs (9 males and 3 females) weighing 22-32 kg (avg=25.3 kg). Animal care was in accordance with the recommendations of the American Association for Accreditation of Laboratory Animal Care, and met all standards prescribed by the Guide for the Care and Use of Laboratory Animals (Guide for the Care and Use of Laboratory Animals (1978) Dept. of Health, Education and Welfare, Washington, D.C. (Publ. No. 78-23). Animal protocols were approved by The University of Texas Animal Welfare committee. The dogs were fasted overnight prior to the day of experimentation. They were anesthetized with sodium pentobarbital (25 mg/kg i.v.). Dogs were then endotracheally intubated and ventilated with a piston-driven respirator (Harvard instruments) using room air at a tidal volume of 15 ml/kg and at a rate of 12 to 14 breaths per minute, adjusted to achieve a normal arterial pH and pCO2 (Instrumentation Laboratories lL1302 pH/Blood Gas Analyzer). Catheters were placed percutaneously into the femoral and pulmonary arteries; In the latter, a flow-directed thermal-dilation catheter was used (Abbott Critical Care Systems).
# Physiologic measurements: Mean SAP and heart rate were continuously monitored (Parametron 7048 Monitoring System, Roche) and stored on a magnetic disk using an analog-to-digital converter (Scientific Solutions, Inc.). Cardiac output (CO) was determined as the mean of six measurements by thermal-dilution. Systemic vascular resistance was calculated as (SAP X80)/CO and expressed as dynes-sec/cm^5 (kg/s·cm^4).
# Protocol: After the blood pressure and heart rate stabilized, endotoxin (40 µg/kg, in 10 ml of phosphate-buffered saline (PBS), pH 7.4) was infused i.v. over 2 minutes. This dose of endotoxin typically induces severe and often lethal cardiovascular collapse in the dog. Blood pressure was monitored, and when either SAP fell below 60 mm Hg or a stable nadir in systemic arterial pressure (SAP) was maintained for 10 minutes, L-NMA was administered (20 mg/kg in 5 ml of PBS i.v. over 1 min.). In most experiments, L-arginine (400 mg/kg in 20 ml PBS) was administered ten minutes later by i.v. infusion over 2 minutes. In control experiments, dogs without prior exposure to endotoxin received L-NMA alone. To simulate the hypotension observed in dogs receiving endotoxin, one group of dogs received a continuous i.v. infusion of nitroglycerin (2 mg/ml) at a rate adjusted to maintain the SAP at 60-70 mm Hg. Nitroglycerin-treated dogs then received L-NMA (20 mg/kg) and 20 minutes later L-arginine was administered ([…]).
# Statistics: Statistical significance was evaluated using Student's test and either a one-tailed or two-tailed analysis as appropriate for comparisons.
# [2] = system: hypotension associated with the administration of TNF in the dog; experiment: TNF-induced hypotension in the dog; format: in vivo, dogs; conditions: L-arginine to previously untreated normotensive dogs
# Experimental: Recombinant human TNF, specific activity 2 x 10^7 units/mg, was from the Dainippon Chemical Corporation, Tokyo, Japan. TNF was administered at a dose of 10 µg//kg in a volume of 10 ml of phosphate buffered saline containing 17 mg/ml of dog albumin. […] Arginine was obtained from Sigma Chemical Company, St. Louis, Mo.
# Four conditioned mongrel dogs, 2 males and 2 females, weighing 28 to 30 kg, were studied. Care of the animals were in accordance with the recommendations of the American Association for Accreditation of Laboratory Animals [DHEW(DHHS) publication no. (NIH) 78-23, revised, 1978]. On the day of the experiment, the dogs were fasted overnight. They were anesthetized with phenobarbital (25 mg/kg). The animals were then intubated orally with a #10 fr. endotracheal tube and ventilated with a Harvard pump ventilator at a rate of 14 breaths per minute and a tidal volume of 15 ml/kg. An arterial line was percutaneously placed in the femoral artery on the day of the experiment.
# Mean (electronic) and phasic systemic arterial pressures (SAP) were continuously recorded on a Hewlett-Packard recording system (model 7758B) using strain gauge manometers (Hewlett-Packard model 1290A) which were connected to the arterial line. Heart rate (HR) was determined from an EKG tracing and continuously recorded on the Hewlett-Packard recording system. Oxyhemoglobin saturation (SaO2) was obtained using a pulse oximeter (BIOX 111, Boulder, CO). Continuous time-series records of SAP, HR, and SaO2 were obtained using a Lab Master analog-to-digital convertor (16 channel, 12 bit, 30 kHz; Scientific Solutions, Inc.) sampling at 55 Hz and storing the 6 sec averages on a magnetic disk.
compound,measurement,setting,value
N=C(N)NCCC[C@H](N)C(=O)O [L-arginine],ΔSAP after L-arginine,"[1]; Figure 6 dog, endotoxin and 2 doses L-NMA",-77 mm Hg
same,Cardiac Output,"[1]; Study 1: Endotoxin-treated dogs (n=4), means ± S.E., same sequence, baseline 2.99 ± 0.32",2.99 ± 0.32 L/min
same,Heart Rate,"[1]; Study 1: Endotoxin-treated dogs (n=4), means ± S.E., same sequence, baseline 119.5 ± 6.0",119.5 ± 6.0 beats/min
same,Systemic Vascular Resistance,"[1]; Study 1: Endotoxin-treated dogs (n=4), means ± S.E., same sequence, baseline 3565 ± 454",3565 ± 454 dynes-sec/cm^5
same,Systemic Arterial Pressure,"[1]; Study 1: Endotoxin-treated dogs (n=4), means ± S.E., sequence endotoxin 40 µg/kg, L-NMA 20 mg/kg, 10 min later L-arginine 400 mg/kg (measured 2 min later), baseline 128.3 ± 9.4",128.3 ± 9.4 mmHg
same,Systemic Vascular Resistance,"[1]; Study 1: Endotoxin-treated dogs (n=4), means ± S.E., value in brackets",3.565 ± 0.454 Kg/s·cm^4
same,Cardiac Output,"[1]; Study 2: Nitroglycerin-treated dogs (n=3), means ± S.E., baseline 3.14 ± 0.21",5.15 ± 1.08 L/min
same,Heart Rate,"[1]; Study 2: Nitroglycerin-treated dogs (n=3), means ± S.E., baseline 143.7 ± 12.1",148.7 ± 19.9 beats/min
same,Systemic Vascular Resistance,"[1]; Study 2: Nitroglycerin-treated dogs (n=3), means ± S.E., baseline 3294 ± 74",1088 ± 491 dynes-sec/cm^5
same,Systemic Arterial Pressure,"[1]; Study 2: Nitroglycerin-treated dogs (n=3), means ± S.E., continuous nitroglycerin (2 mg/ml) titrated to SAP 65 mm Hg, then L-NMA 20 mg/kg, then L-arginine, baseline 129.3 ± 10.2",57.0 ± 13.0 mmHg
same,Systemic Vascular Resistance,"[1]; Study 2: Nitroglycerin-treated dogs (n=3), value in brackets",1.088 ± 0.491 Kg/s·cm^4
same,effect on the pressor effect of L-NMA,"[1]; control dogs, L-arginine 400 mg/kg",fully reversed
same,effect on blood pressure,[2],not affected
